Measured values: patent publication US10036033B2, “Method of inhibiting sprouting in plant tissues” (Academia Sinica, priority 2014, dated 2018)
Blank lines part the entries; values can stand above or below the molecule they belong to.

Key:
[1] = system: ABA induced gene expression (ABRC1-GUS) in barley aleurone cells; assay: Transient expression assay, ABRC1-GUS reporter, barley aleurone cells; format: cell-based, barley (Hordeum vulgare); details: 20 μM ABA, 24 h
From the text: FIG. 2. FCA alters ABA but not GA pathway in barley aleurone cells. (A) Schemes of the reporter and effector constructs used in transient expression assays. (B) FCA-overexpression enhances and (D) FCA-RNAi suppresses ABA induced gene expression in barley aleurone cells. (C and E) GA induced gene expression is not affected. The reporter construct ABRC1-GUS or Amy32b-GUS was cobombarded into barley embryoless half-seeds with (+) or without (−) effector constructs Ubi-HvFCA-RNAi or Ubi-HvFCA. Bars indicate GUS activities ±SE after 24 h of incubation of bombarded embryoless half-seeds in shooting buffer with or without 20 μM ABA or 1 μM GA.
FIG. 9. FCA-overexpression enhances ABA induced gene expression in barley aleurone cells. (A) Schemes of the reporter and effector constructs used in transient expression assays. (B) The reporter construct ABRC1-GUS was cobombarded into barley embryoless half-seeds with (+) or without (−) effector constructs Ubi-HvFCA or Ubi-OsFCA. Bars indicate GUS activities ±SE after 24 h of incubation of bombarded embryoless half-seeds in shooting buffer with (+) or without (−) 10 μM ABA.
Rice (Oryza sativa) cultivar Tainung 67 was used in this study. Rice seedlings were grown in Kimura B nutrient solution at 28° C., 16L/8D photoperiod. Barley seeds (Hordeum vulgare L. cv. Himalaya) were used in all the transient assays. […]

[2] = system: ABA induced gene expression (ABRC1-GUS) in rice aleurone cells; assay: ABRC1-GUS reporter expression assay in transgenic rice embryoless half-seeds (aleurone cells); format: cell-based, rice (Oryza sativa); details: wild type rice aleurone cells; 20 μM ABA, 24 h
Method: FIG. 1. FCA-overexpression enhances and FCA-RNAi suppresses ABA induced gene expression in rice aleurone cells. The reporter construct (A) ABRC1-GUS was bombarded into (B) FCA-overexpression and (C) FCA-RNAi transgenic rice embryoless half-seeds. Bars indicate GUS activities ±SE after 24 h of incubation of bombarded seeds in shooting buffer with or without 20 μM ABA.
Rice (Oryza sativa) cultivar Tainung 67 was used in this study. Rice seedlings were grown in Kimura B nutrient solution at 28° C., 16L/8D photoperiod. Barley seeds (Hordeum vulgare L. cv. Himalaya) were used in all the transient assays. Embryoless half-seeds were prepared as described (Gomez-Cadenas et al., 2001).
Rice FCA cDNA clones (GenBank Accession Numbers AK073225 and AK058419) were supplied by Rice Genome Resource Center (RGRC) of National Institute of Agricultural Sciences (NIAS). Coding region of rice FCA was amplified from FCA cDNA clone by PCR. Coding region of barley FCA was amplified from total RNA of barley seed by RT-PCR. For underexpression of FCA, nucleotide number 307-822 of rice FCA ORF and nucleotide number 1532-1945 of barley FCA ORF were amplified. All PCR products were T/A cloned into pCR8/GW/TOPO vector (Invitrogen). Sequences and orientations of inserts in vector were confirmed by sequencing. […]

[3] = system: ABI5; assay: In planta two-hybrid study; format: binding
[4] = biological target: T1, VP1 (Zea mays, UniProt P26307); assay: In planta two-hybrid study; format: binding
T1 sequence (P26307 1-691): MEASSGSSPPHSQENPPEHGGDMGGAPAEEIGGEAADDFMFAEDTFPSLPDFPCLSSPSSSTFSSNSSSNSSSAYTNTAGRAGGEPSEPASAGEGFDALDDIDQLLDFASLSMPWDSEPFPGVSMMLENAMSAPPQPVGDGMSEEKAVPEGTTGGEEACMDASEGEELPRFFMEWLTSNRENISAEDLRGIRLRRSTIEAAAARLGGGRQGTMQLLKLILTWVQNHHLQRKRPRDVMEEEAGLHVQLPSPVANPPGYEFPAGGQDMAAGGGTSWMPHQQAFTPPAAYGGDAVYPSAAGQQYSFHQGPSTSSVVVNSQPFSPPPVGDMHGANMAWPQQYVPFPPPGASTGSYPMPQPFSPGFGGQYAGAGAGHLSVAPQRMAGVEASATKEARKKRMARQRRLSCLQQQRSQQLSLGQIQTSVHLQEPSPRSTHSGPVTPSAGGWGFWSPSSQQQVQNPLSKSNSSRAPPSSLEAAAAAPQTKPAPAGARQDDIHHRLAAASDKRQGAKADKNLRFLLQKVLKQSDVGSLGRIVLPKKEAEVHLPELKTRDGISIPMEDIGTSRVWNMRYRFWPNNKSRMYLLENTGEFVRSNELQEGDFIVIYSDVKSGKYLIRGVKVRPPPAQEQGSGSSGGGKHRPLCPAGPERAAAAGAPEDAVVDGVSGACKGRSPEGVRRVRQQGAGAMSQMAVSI

Molecule: CC1=CC(=O)CC(C)(C)C1(O)/C=C/C(C)=C\C(=O)O (stereo not shown) [ABA]
ABRC1-GUS reporter induction by ABA treatment [1]: highly induced
ABRC1-GUS reporter induction by ABA treatment [2]: highly induced

Interaction with VP1 [4]: interacts with VP1
B1: OsFCA: Rice FCA protein, nuclear RNA-binding protein, SEQ ID NO: 1 (protein, listed as Oryza sativa)
chain: MHRGGDRSTDPSSGPAPGSRGGGDGRFGRGPSRWSSGGGGGGSGSPPHRFSRGGGGGGGDGGGGGGGGGRFHPYRGPSDHSGGGGYRSGGGGEYGEPGSGPRHRYGSGRGDHSDHDNRNNYVKLFIGSVPRTATEDDVRPLFEEHGDVVEVALIKDRKTGEQQGCCFVKYATSEEAERAIRALHNQYTLPGAMGPIQVRYADGERERHGAIEHKLFVASLNKQATAKEIEEIFAPYGHVEDVYIMKDGMRQSRGCGFVKFSSREPALAAMSALSGNYVMRGCEQPLIIRFADPKRPRPGGSRGGPAFGGPGFSPRSDAALVIRPTANLDEPRGRHMPPDSWHPSSPRSAPHQFNNFGSDNPMAPKGSTVTSTTDTATFRPQMFSGNGSLSSQTAVPSSSHMGMNPPPMAQGHHLGGQQIPPLQKLPGLPQNFPVQLQNNQLGQPLQGPAQQIGQLQVPQSMGPGSFGQNRLSGQLPVSQPLMQQNASVSAVQVPSAVSNSMQAIPGQQHLPSNVAPQMLQQPVQQMPSQAPQLLLQQQAALQSSYQSSQQAIYQLQQQLQLMQQQQQSNLNHQQPTQGQPVQSSNPGAPNAIIPSNINTIPQQATSPAVPLTCNWTEHTSPEGFKYYYNSITRESKWDKPEEYVLYEQQQQQQQQQKLLLLQQHKQKLAMQQLQSPPQAQTHPAMQPVQQIPQAQQGQQQMQMKQQELNYTQLQTPGAIDPSRIQQGIQSAQERAWKS
Interaction with ABI5 [3]: not with ABI5 directly
